Test results from patent US6222035A, “[1,2,4] triazolo [1,5-C] pyrimidine derivatives” (Kyowa Hakko Kogyo Co., Ltd., priority 1997, dated 2001).

Columns and labels:
[1] = system: CGS 21680-induced catalepsy in mice; assay: Activity on CGS 21680-induced Catalepsy; type: in vivo, mouse (male ddY); conditions: 10 mg/kg oral; for Total score (catalepsy): 10 animals, maximum 50 points, control 48; for Number of Animals showing remission: catalepsy score 4 points or less in 10 cases; for inhibition in vivo at 10 mg/kg: Mus musculus, CGS 21680-induced catalepsy, read-out: Remission ratio (%)
Method in brief: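 Male ddY mice (5 weeks, 10 per group) received CGS 21680 10 μg/20 μl intracerebroventricularly; test compounds given orally at 10 mg/kg in 0.3% Tween 80 suspension. Catalepsy scored 1 h after dosing on a 4.5 cm bar; total group score (maximum 50) compared with control; ≤4 per animal counted as remission.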

[2] = system: haloperidol-induced catalepsy in mice; assay: Activity on haloperidol-induced Catalepsy; type: in vivo, mouse (male ddY); conditions: 10 mg/kg oral; for Total score (catalepsy): 10 animals, maximum 50 points, control 50; for Number of Animals showing remission: catalepsy score 4 points or less in 10 cases; for Remission ratio (%): haloperidol-induced catalepsy
Description: Activity on haloperidol-induced Catalepsy
Parkinson's disease is a disease based on the degeneration and cell death of the nigrostriatal dopaminergic neuron. When haloperidol (dopamine D1/D2 antagonist) is administered, catalepsy is induced by the block of postsynaptic D2 receptor. This haloperidol-induced catalepsy is known as a classic model in which symptoms of Parkinson's disease are produced by drug administration [European Journal of Pharmacology, 182: 327 (1990) and U.S. Pat. No. 3,991,207].
This test was carried out using 10 animals per group of male ddY mice of 5 week age (22 to 24 g in body weight, Japan SLC). Haloperidol (manufacturedby Janssen) was suspended in 0.3% CMC and administered intraperitoneally into mice at a dose of 1.0 mg/kg. Each test compound was used by mixing it with Tween 80 and then suspending it in distilled water for injection (manufactured by Otsuka Pharmaceutical). Also, L-DOPA (manufactured by Kyowa Hakko Kogyo Co., Ltd.) and benserazide HCl (manufactured by Kyowa Hakko Kogyo Co., Ltd.) were used by suspending them in 0.3% CMC. […] All of the test compounds were administered orally in a dose of 10 mg/kg, and 100 mg/kg of L-DOPA and 25 mg/kg of benserazide were used in combination as a control drug and administered by intraperitoneal injection. The catalepsy score was evaluated by the judging criteria shown in the above-described Table 3.
The effect was judged by total catalepsy scores of 10 animals in one group (the maximum is 50 points). When the total score was 40 points or less, the activity of drugs was judged positive. The number of animals showing remission of catalepsy was expressed by the number of cases in which the catalepsy score was 4 points or less in 10 cases. The catalepsy remission ratio was expressed as the percentage of the total score in the test compound-administered group to the total score in the control group.

[3] = system: clonidine-induced aggressive behavior in mice; assay: Activity on Clonidine-induced Aggressive Behavior; type: in vivo, mouse (male ddY); conditions: 10 mg/kg po; for Number of attacks (count; average ± S.E.M.), test compound group: *: p < 0.05, 10 animals
Description: Activity on Clonidine-induced Aggressive Behavior
Effect of test compounds to increase aggressive behavior induced by the intraperitoneal injection of clonidine [European Journal of Pharmacology, 29: 374 (1968)] was examined.
This test was carried out using 2 animals per group of male ddY mice of 20 to 25 g in body weight (Japan SLC). Each test compound was used by mixing it with Tween 80 and then suspending it in distilled water for injection (manufactured by Otsuka Pharmaceutical), and clonidine hydrochloride (manufactured by Sigma Co.) was used by dissolving it in physiological saline (manufactured by Otsuka Pharmaceutical). […] The number of aggressive behavior of each mouse was measured for 30 minutes immediately after the administration of clonidine. The effect was judged by comparing values of the number of aggressive behavior in the control and those in test compound-administered groups (significance test: Student t-test).

[4] = molecular target: T1, adenosine A2A receptor (Rattus norvegicus, UniProt P30543); assay: Adenosine receptor binding activity (adenosine A2A receptor binding test), 3H-CGS 21680 binding; conditions: 2 h, read-out: A2A receptor inhibition ratio (%); for inhibition at 0.1 µM: 10^-7 M; for inhibition at 0.01 µM: 10^-8 M
T1 construct: from tissue; host or cells: rat corpus striatum, washed membrane suspension
T1 sequence (P30543 whole entry): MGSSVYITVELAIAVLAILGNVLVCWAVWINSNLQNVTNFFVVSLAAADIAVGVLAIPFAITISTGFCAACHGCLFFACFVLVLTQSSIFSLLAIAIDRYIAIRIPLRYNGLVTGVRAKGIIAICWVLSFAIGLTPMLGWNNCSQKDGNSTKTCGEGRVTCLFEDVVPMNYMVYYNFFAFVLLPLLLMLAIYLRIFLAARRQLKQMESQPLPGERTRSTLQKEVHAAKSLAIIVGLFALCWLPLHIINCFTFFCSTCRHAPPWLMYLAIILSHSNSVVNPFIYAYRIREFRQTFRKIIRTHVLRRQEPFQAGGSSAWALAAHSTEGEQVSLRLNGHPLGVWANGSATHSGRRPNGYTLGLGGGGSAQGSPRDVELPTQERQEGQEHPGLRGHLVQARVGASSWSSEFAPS
Description: Adenosine receptor binding activity (adenosine A2A receptor binding test) This test was carried out by slightly modifying the method of Bruns et al. [Molecular Pharmacology, 29: 331 (1986)].
Corpus striatum of a rat was suspended in an ice-cooled 50 mM tris(hydroxymethyl)aminomethane hydrochloride (hereinafter referred to as "Tris-HCl") buffer (pH 7.7) using Polytron Homogenizer (manufactured by Kinematica Co.). The suspension was centrifuged (50,000×g, 10 minutes), and the obtained precipitate was re-suspended in the same amount of 50 mM Tris-HCl buffer. The suspension was centrifuged under the same conditions, and the final precipitate was suspended in 50 mM Tris-HCl [containing 10 mM magnesium chloride and 0.02 unit/mg tissue of adenosine deaminase (manufactured by Sigma Co.)] to give a tissue concentration of 5 mg (wet weight)/ml.
To 1 ml of the tissue suspension thus prepared were added 50 μl of tritium-labeled CGS 21680 {^3 H-2-[p-(2-carboxyethyl)phenethylamino]-5'-N-ethylcarboxamido)adenosine: 40 Ci/mmol; manufactured by New England Nuclear Co.[The Journal of Pharmacology and Experimental Therapeutics, 251: 888 (1989)]} (final concentration:4.0 nM) and 50 μl of a test compound. The resulting mixture was allowed to stand for 120 minutes at 25° C., and then rapidly filtered by suction through a glass fiber filter (GF/C, manufactured by Whatman Co.) The filter was immediately washed three times with […] of an ice-cooled 50 mM Tris-HCl buffer, and transferred to a vial, a scintillator (EX-H , manufactured by Wako Pure Chemical Industries, Ltd.) was added thereto, and the radioactivity on the filter was determined with a liquid scintillation counter (manufactured by Packard Instrument Co.) […]
The inhibition ratio of the test compound against the A2A receptor binding (^3 H-CGS 21680 binding) was calculated by the following equation:
Inhibition ratio (%)={1-(Amount of the binding in the presence of the test compound-Amount of the nonspecific binding)/(Amount of the total binding-Amount of the nonspecific binding)}×100
(Note) Amount of the total binding means the amount of radioactivity of ^3 H-CGS 21680 bound in the absence of the test compound. Amount of the nonspecific binding means the amount of radioactivity of ^3 H-CGS 21680 bound in the presence of 100 μM cyclopentyladenosine (CPA, manufactured by Sigma Co.) Amount of the binding in the presence of the test compound means the amount of radioactivity of ^3 H-CGS 21680 bound in the presence of the test compound at various levels of concentrations.

Row | Compound | Total score (catalepsy) [1] | Number of Animals showing remission [1] | inhibition in vivo at 10 mg/kg [1] [%] | Total score (catalepsy) [2] | Number of Animals showing remission [2] | Remission ratio (%) [2] [%] | Number of attacks in test compound group/number of attacks in control group [3] | Number of attacks (count; average ± S.E.M.), test compound group [3] [count] | inhibition at 0.1 µM [4] [%] | inhibition at 0.01 µM [4] [%]
1 | COc1ccc(Oc2cc3nc(-c4ccco4)nn3c(N)n2)cc1OC [Compound 31, 5-Amino-7-(3,4-dimethoxyphenoxy)-2-(2-furyl)[1,2,4]triazolo[1,5-c]pyrimidine] | 28 | 9 | 42 | 15 | 10 | 70 | 9.1 | 38.1 ± 13.06 |  | 
2 | COc1cccc(OC)c1Oc1cc2nc(-c3ccco3)nn2c(N)n1 [Compound 32, 5-Anino-7-(2,6-dimethoxyphenoxy)-2-(2-furyl)[1,2,4]triazolo[1,5-c]pyrimidine] | 21 | 9 | 54 | 37 | 5 | 26 |  |  | 89 | 71
3 | Nc1nc(N2CCOCC2)cc2nc(-c3ccco3)nn12 [Compound 39, 5-Amino-2-(2-furyl)-7-morpholino[1,2,4]triazolo[1.5-c]pyrimidine] | 20 | 9 | 56 |  |  |  | 8.1 | 9.70 ± 3.42 |  | 
4 | Nc1nc(N2CCN(Cc3ccccc3)CC2)cc2nc(-c3ccco3)nn12 [Compound 42, 5-Amino-7-(4-benzylpiperazinyl)2-(2-furyl)[1,2,4]triazolo[1,5-c]pyrimidine] | 12 | 9 | 72 | 1 | 10 | 98 |  |  | 82 | 43
5 | Nc1nc(N2CCN(CCc3ccccc3)CC2)cc2nc(-c3ccco3)nn12 [Compound 46, 5-Amino-2-(2-furyl)-7-[4-(2-phenylethyl)piperazinyl][1,2,4]triazolo[1,5-c]pyrimidine] | 9 | 10 | 78 | 13 | 10 | 74 |  |  | 79 | 35
6 | CCOC(=O)c1cnc(N)n2nc(-c3ccco3)nc12 [Compound 55, 5-Amino-8-ethoxycarbonyl-2-(2-furyl)[1,2,4]triazolo[1,5-c]pyrimidine] | 29 | 9 | 36 | 35 | 5 | 30 |  |  |  | 
7 | Nc1nc(N2CCN(CCF)CC2)cc2nc(-c3ccco3)nn12 [Compound 126, 5-Amino-7-(4-(2-fluoroethyl)piperazinyl)-2-(2-furyl)[1,2,4]triazolo[1,5-c]pyrimidine] | 2 | 9 | 96 |  |  |  |  |  | 60 | 
8 | Nc1nc(N2CCN(CCCF)CC2)cc2nc(-c3ccco3)nn12 [Compound 127, 5-Amino-7-(4-(3-fluoropropyl)piperazinyl)-2-(2-furyl)[1,2,4]triazolo[1,5-c]pyrimidine] | 3 | 10 | 96 |  |  |  |  |  | 59 | 
9 | CCCCN1CCN(c2cc3nc(-c4ccco4)nn3c(N)n2)CC1 [Compound 135, 5-Amino-7-(4-butylpiperazinyl)-2-(2-furyl)[1,2,4]triazolo[1,5-c]pyrimidine] | 9 | 9 | 80 |  |  |  |  |  | 49 | 
10 | Cc1nc(CN2CCN(c3cc4nc(-c5ccco5)nn4c(N)n3)CC2)cs1 [Compound 142, 5-Amino-2-(2-furyl)-7-(4-(2-methylthiazol-4-ylmethyl)piperazinyl)[1,2,4]triazolo[1,5-c]pyrimidine] | 6 | 10 | 88 |  |  |  |  |  | 66 | 
11 | Nc1nc(N2CCN(Cc3cnns3)CC2)cc2nc(-c3ccco3)nn12 [Compound 144, 5-Amino-2-(2-furyl)-7-(4-(1,2,3-thiadiazol-5-ylmethyl)piperazinyl)[1,2,4]triazolo[1,5-c]pyrimidine] | 9 | 9 | 80 |  |  |  |  |  | 58 | 
12 | CC(C)C(=O)c1cnc(N)n2nc(-c3ccco3)nc12 [Compound 153, 5-Amino-8-(1-oxo-2-methylpropyl)-2-(2-furyl)[1,2,4]triazolo[1,5-c]pyrimidine] | 10 | 9 | 80 |  |  |  |  |  | 48 | 
13 | CCC(=O)c1cnc(N)n2nc(-c3ccco3)nc12 [Compound 158, 5-Amino-2-(2-furyl)-8-propionyl[1,2,4]triazolo[1,5-c]pyrimidine] | 23 | 8 | 52 |  |  |  |  |  | 92 | 
14 | CCNC(=O)c1cnc(N)n2nc(-c3ccco3)nc12 [Compound 169, 5-Amino-8-ethylcarbamoyl-2-(2-furyl)[1,2,4]triazolo[1,5-c]pyrimidine] | 9 | 10 | 82 |  |  |  |  |  | 96 | 
15 | N#Cc1ccccc1CSc1cc2nc(-c3ccco3)nn2c(N)n1 [Compound 188, 5-Amino-7-(2-cyanobenzylthio)-2-(2-furyl)[1,2,4]triazolo[1,5-c]pyrimidine] | 15 | 2 | 70 |  |  |  |  |  | 91 | 
